Patent US11117947B2, “Double-acylated GLP-1 derivatives” (Novo Nordisk A/S, priority 2011, dated 2021)
pEC50: −log10 of the molar value. Read-outs that look alike come from different tables or passages of the source. Numbered stars: 1 amine (or outer) side, 2 acyl side, 3 side chain; on linkers, the order of the positions; unused ones are H or OH. Square brackets hold non-standard residues; d marks the D form. Side chains are listed from the residue outwards. Peptide text beside a SMILES is read from it. * marks the point of attachment. Decanoyl(10-(4-HOOC-PhO)) = O=C(O)c1ccc(OCCCCCCCCCC(=O)*)cc1; d(γGlu) = O=C(O)[C@@H](CCC(=O)[*:2])N[*:1]; γGlu = O=C(O)[C@H](CCC(=O)[*:2])N[*:1]; C14 diacid = O=C(O)CCCCCCCCCCCCC(=O)*; AEEA = NCCOCCOCC(=O)O; Aib = CC(C)(N)C(=O)O

What was measured:
[1] = target: T1, human GLP-1 receptor (Homo sapiens, UniProt P43220); test: In vitro potency: stimulation of cAMP formation (AlphaScreen cAMP Assay) in membranes expressing the human GLP-1 receptor; format: biochemical; settings: membranes from BHK467-12A (tk-ts13) expressing the human GLP-1 receptor
T1 construct: expressed in transfected cells; membranes
T1 sequence (P43220 24-463): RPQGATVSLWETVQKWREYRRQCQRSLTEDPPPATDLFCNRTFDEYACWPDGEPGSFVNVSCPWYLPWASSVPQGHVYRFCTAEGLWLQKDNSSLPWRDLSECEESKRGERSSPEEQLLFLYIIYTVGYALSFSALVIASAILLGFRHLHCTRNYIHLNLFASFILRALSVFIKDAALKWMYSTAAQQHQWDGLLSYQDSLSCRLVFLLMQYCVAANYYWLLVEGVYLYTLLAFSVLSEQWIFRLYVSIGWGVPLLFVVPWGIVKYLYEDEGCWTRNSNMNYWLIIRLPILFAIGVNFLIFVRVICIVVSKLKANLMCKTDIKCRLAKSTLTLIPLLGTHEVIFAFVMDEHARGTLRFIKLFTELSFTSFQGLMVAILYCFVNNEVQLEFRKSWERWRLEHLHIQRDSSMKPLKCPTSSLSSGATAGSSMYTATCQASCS
Procedure: Purified plasma membranes from a stable transfected cell line, BHK467-12A (tk-ts13), expressing the human GLP-1 receptor were stimulated with the GLP-1 analogue or derivative in question, and the potency of cAMP production was measured using the AlphaScreen™ cAMP Assay Kit from Perkin Elmer Life Sciences. The basic principle of the AlphaScreen Assay is a competition between endogenous cAMP and exogenously added biotin-cAMP. The capture of cAMP is achieved by using a specific antibody conjugated to acceptor beads.
A stable transfected cell line and a high expressing clone were selected for screening. The cells were grown at 5% CO2 in DMEM, 5% FCS, 1% Pen/Strep (Penicillin/Streptomycin) and 0.5 mg/ml of the selection marker G418.
Cells at approximately 80% confluence were washed 2× with PBS and harvested with Versene (aqueous solution of the tetrasodium salt of ethylenediaminetetraacetic acid), centrifuged 5 min at 1000 rpm and the supernatant removed. The additional steps were all performed on ice. The cell pellet was homogenised by the Ultrathurax for 20-30 s in 10 ml of Buffer 1 (20 mM Na-HEPES, 10 mM EDTA, pH=7.4), centrifuged 15 min at 20,000 rpm and the pellet resuspended in 10 ml of Buffer 2 (20 mM Na-HEPES, 0.1 mM EDTA, pH=7.4). The suspension was homogenised for 20-30 s and centrifuged 15 min at 20,000 rpm. Suspension in Buffer 2, homogenisation and centrifugation was repeated once and the membranes were resuspended in Buffer 2. The protein concentration was determined and the membranes stored at −80° C. until use.
The final volume per well was 50 μl.
AlphaScreen cAMP Assay Kit from Perkin Elmer Life Sciences (cat. No: 6760625M); containing Anti-cAMP Acceptor beads (10 U/μl), Streptavidin Donor beads (10 U/μl) and Biotinylated-cAMP (133 U/μl).
cAMP standard (dilution factor in assay=5): cAMP Solution: 5 μL of a 5 mM cAMP-stock+495 μL AlphaScreen Buffer.
Membranes were prepared from hGLP-1/BHK 467-12A cells with a concentration of 6 μg/well corresponding to 0.6 mg/ml (the amount of membranes used pr. well may vary)
“No membranes”: Acceptor Beads (15 μg/ml final) in AlphaScreen buffer
“6 μg/well membranes”: membranes+Acceptor Beads (15 μg/ml final) in AlphaScreen buffer
An aliquot (10 μl) of “No membranes” was added to the cAMP standard (per well in duplicate wells) and the positive and negative controls
An aliquot (10 μl) of “6 μg/well membranes” was added to GLP-1 and analogues (per well in duplicate or triplicate wells)
Pos. Control: 10 μl “no membranes”+10 μl AlphaScreen Buffer
Neg. Control: 10 μl “no membranes”+10 μl cAMP Stock Solution (50 μM)
1. Make the AlphaScreen Buffer.
2. Dissolve and dilute the GLP-1/Analogues/cAMP standard in AlphaScreen Buffer.
4. Add the cAMP/GLP-1/Analogues to the plate: 10 μl per well.
5. Prepare membrane/Acceptor Beads solution and add this to the plates: 10 μl per well.
6. Add the Donor Beads: 30 μl per well.

[2] = target: T1, human GLP-1 receptor; test: GLP-1 receptor binding: displacement of 125I-GLP-1 (SPA) at low and high albumin
Summary of the method: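 Membranes from hamster cells stably transfected with the receptor, with WGA SPA beads and 0.06 nM [^125I]-GLP-1(7-36)NH2, incubated 120 min at 30 °C with shaking.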

[3] = Estimate of oral bioavailability: gut injection in rat (caprate), exposure in plasma; format: in vivo; settings: injection in jejunum, 1000 uM in 55 mg/ml sodium caprate, plasma concentration (pM) at 30 min divided by dosing solution concentration (μM), mean n=4
Summary of the method: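 Male Sprague Dawley rats (~240 g, n=4) received 100 μl of 1000 uM derivative in 55 mg/ml sodium caprate by catheter into proximal or mid jejunum. Tail-vein EDTA plasma was sampled up to 240 min. Peptide was quantified by two-antibody bead chemiluminescence immunoassay, giving mean concentration-time profiles (pmol/l).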

[4] = low albumin, 0.001% HSA, read-out: IC50/nM (low HSA)

| Ratio [(IC50/nM) high HSA]/[(IC50/nM) low HSA] ([2]; 2.0% HSA vs 0.001% HSA) | IC50 ([2]; high albumin, 2.0% HSA, read-out: IC50/nM (high HSA)) | Structure (SMILES) | pEC50 [1] | IC50 [2, 4] | Dose-corrected exposure at 30 min [3] |
| --- | --- | --- | --- | --- | --- |
|  |  | CC[C@H](C)[C@H](NC(=O)[C@H](Cc1ccccc1)NC(=O)[C@H](CCCCNC(=O)COCCOCCNC(=O)COCCOCCNC(=O)CC[C@H](NC(=O)CCCCCCCCCOc1ccc(C(=O)O)cc1)C(=O)O)NC(=O)[C@H](CCCNC(=N)N)NC(=O)[C@H](C)NC(=O)[C@H](CCCCNC(=O)COCCOCCNC(=O)COCCOCCNC(=O)CC[C@H](NC(=O)CCCCCCCCCOc1ccc(C(=O)O)cc1)C(=O)O)NC(=O)[C@H](CCC(N)=O)NC(=O)[C@H](CCC(=O)O)NC(=O)[C@H](CCC(=O)O)NC(=O)[C@H](CC(C)C)NC(=O)[C@H](Cc1ccc(O)cc1)NC(=O)[C@H](CO)NC(=O)[C@H](CO)NC(=O)[C@@H](NC(=O)[C@H](CC(=O)O)NC(=O)[C@H](CO)NC(=O)[C@@H](NC(=O)[C@H](Cc1ccccc1)NC(=O)[C@@H](NC(=O)CNC(=O)[C@H](CCC(=O)O)NC(=O)[C@H](C)NC(=O)[C@@H](N)Cc1c[nH]cn1)[C@@H](C)O)[C@@H](C)O)C(C)C)C(=O)N[C@@H](C)C(=O)N[C@@H](Cc1c[nH]cn1)C(=O)N[C@@H](CC(C)C)C(=O)N[C@H](C(=O)NCC(=O)O)C(C)C [Example 25, N^ε24-[2-[2-[2-[[2-[2-[2-[[(4S)-4-carboxy-4-[10-(4-carboxyphenoxy)decanoylamino]butanoyl]amino]ethoxy]ethoxy]acetyl]amino]ethoxy]ethoxy]acetyl], N^ε27-[2-[2-[2-[[2-[2-[2-[[(4S)-4-carboxy-4-[10-(4-carboxyphenoxy)decanoylamino]butanoyl]amino]ethoxy]ethoxy]acetyl]amino]ethoxy]ethoxy]acetyl]-[Glu^22,Lys^24,Arg^26,Lys^27,His^31,Gly^34]-GLP-1-(7-34)-peptide] (H-HAEGTFTSDVSSYLEEQK([AEEA-AEEA-γGlu-Decanoyl(10-(4-HOOC-PhO))])ARK([AEEA-AEEA-γGlu-Decanoyl(10-(4-HOOC-PhO))])FIAHLVG-OH; N-terminus and C-terminus assumed) | 9.42 |  |  |
| 92 | 363 nM | CC[C@H](C)[C@H](NC(=O)[C@H](Cc1ccccc1)NC(=O)[C@H](CCCCNC(=O)COCCOCCNC(=O)COCCOCCNC(=O)CC[C@H](NC(=O)CCCCCCCCCCCCC(=O)O)C(=O)O)NC(=O)[C@H](CCCNC(=N)N)NC(=O)[C@@H](NC(=O)[C@H](CCCCNC(=O)COCCOCCNC(=O)COCCOCCNC(=O)CC[C@H](NC(=O)CCCCCCCCCCCCC(=O)O)C(=O)O)NC(=O)[C@H](CCC(N)=O)NC(=O)[C@H](CCC(=O)O)NC(=O)[C@H](CCC(=O)O)NC(=O)[C@H](CC(C)C)NC(=O)[C@H](Cc1ccc(O)cc1)NC(=O)[C@H](CO)NC(=O)[C@H](CO)NC(=O)[C@@H](NC(=O)[C@H](CC(=O)O)NC(=O)[C@H](CO)NC(=O)[C@@H](NC(=O)[C@H](Cc1ccccc1)NC(=O)[C@@H](NC(=O)CNC(=O)[C@H](CCC(=O)O)NC(=O)C(C)(C)NC(=O)[C@@H](N)Cc1c[nH]cn1)[C@@H](C)O)[C@@H](C)O)C(C)C)C(C)C)C(=O)N[C@@H](C)C(=O)N[C@@H](Cc1c[nH]cn1)C(=O)N[C@@H](CC(C)C)C(=O)N[C@H](C(=O)N[C@@H](CCC(N)=O)C(=O)NCC(=O)N[C@@H](CCCNC(=N)N)C(=O)NCC(=O)O)C(C)C [Example 29, N^ε24-[2-[2-[2-[[2-[2-[2-[[(4S)-4-carboxy-4-(13-carboxytridecanoylamino)butanoyl]amino]ethoxy]ethoxy]acetyl]amino]ethoxy]ethoxy]acetyl], N^ε27-[2-[2-[2-[[2-[2-[2-[[(4S)-4-carboxy-4-(13-carboxytridecanoylamino)butanoyl]amino]ethoxy]ethoxy]acetyl]amino]ethoxy]ethoxy]acetyl]-[Aib^8,Glu^22,Lys^24,Val^25,Arg^26,Lys^27,His^31,Gln^34]-GLP-1-(7-37)-peptide] (H-H[Aib]EGTFTSDVSSYLEEQK([AEEA-AEEA-γGlu-C14 diacid])VRK([AEEA-AEEA-γGlu-C14 diacid])FIAHLVQGRG-OH) | 10.40 | 3.95 nM |  |
|  |  | CC[C@H](C)[C@H](NC(=O)[C@H](Cc1ccccc1)NC(=O)[C@H](CCCCNC(=O)CC[C@H](NC(=O)COCCOCCNC(=O)COCCOCCNC(=O)CC[C@@H](NC(=O)CCCCCCCCCOc1ccc(C(=O)O)cc1)C(=O)O)C(=O)O)NC(=O)[C@H](CCCNC(=N)N)NC(=O)[C@@H](NC(=O)[C@H](C)NC(=O)[C@H](CCC(N)=O)NC(=O)CNC(=O)[C@H](CCC(=O)O)NC(=O)[C@H](CC(C)C)NC(=O)[C@H](Cc1ccc(O)cc1)NC(=O)[C@H](CO)NC(=O)[C@H](CO)NC(=O)[C@@H](NC(=O)[C@H](CC(=O)O)NC(=O)[C@H](CO)NC(=O)[C@@H](NC(=O)[C@H](Cc1ccccc1)NC(=O)[C@@H](NC(=O)CNC(=O)[C@H](CCC(=O)O)NC(=O)[C@H](C)NC(=O)[C@@H](N)Cc1c[nH]cn1)[C@@H](C)O)[C@@H](C)O)C(C)C)C(C)C)C(=O)N[C@@H](C)C(=O)N[C@@H](Cc1c[nH]c2ccccc12)C(=O)N[C@@H](CC(C)C)C(=O)N[C@H](C(=O)N[C@@H](CCC(N)=O)C(=O)NCC(=O)N[C@@H](CCCCNC(=O)CC[C@H](NC(=O)COCCOCCNC(=O)COCCOCCNC(=O)CC[C@@H](NC(=O)CCCCCCCCCOc1ccc(C(=O)O)cc1)C(=O)O)C(=O)O)C(=O)NCC(=O)O)C(C)C [Example 26] (H-HAEGTFTSDVSSYLEGQAVRK([γGlu-AEEA-AEEA-d(γGlu)-Decanoyl(10-(4-HOOC-PhO))])FIAWLVQGK([γGlu-AEEA-AEEA-d(γGlu)-Decanoyl(10-(4-HOOC-PhO))])G-OH; N-terminus and C-terminus assumed) | 9.70 | 0.38 nM |  |
|  |  | CC[C@H](C)[C@H](NC(=O)[C@H](Cc1ccccc1)NC(=O)[C@H](CCCCNC(=O)COCCOCCNC(=O)COCCOCCNC(=O)CC[C@H](NC(=O)CCCCCCCCCOc1ccc(C(=O)O)cc1)C(=O)O)NC(=O)[C@H](Cc1c[nH]cn1)NC(=O)[C@H](C)NC(=O)[C@H](C)NC(=O)[C@H](CCC(N)=O)NC(=O)[C@H](CCC(=O)O)NC(=O)[C@H](CCC(=O)O)NC(=O)[C@H](CC(C)C)NC(=O)[C@H](Cc1ccc(O)cc1)NC(=O)[C@H](CO)NC(=O)[C@H](CO)NC(=O)[C@@H](NC(=O)[C@H](CC(=O)O)NC(=O)[C@H](CO)NC(=O)[C@@H](NC(=O)[C@H](Cc1ccccc1)NC(=O)[C@@H](NC(=O)CNC(=O)[C@H](CCC(=O)O)NC(=O)[C@H](C)NC(=O)[C@@H](N)Cc1c[nH]cn1)[C@@H](C)O)[C@@H](C)O)C(C)C)C(=O)N[C@@H](CCC(=O)O)C(=O)N[C@@H](Cc1c[nH]c2ccccc12)C(=O)N[C@@H](CC(C)C)C(=O)N[C@H](C(=O)N[C@@H](CCCNC(=N)N)C(=O)NCC(=O)N[C@@H](CCCCNC(=O)COCCOCCNC(=O)COCCOCCNC(=O)CC[C@H](NC(=O)CCCCCCCCCOc1ccc(C(=O)O)cc1)C(=O)O)C(=O)NCC(=O)N[C@@H](CCC(=O)O)C(=O)O)C(C)C [Example 21, N^ε27-[2-[2-[2-[[2-[2-[2-[[(4S)-4-carboxy-4-[10-(4-carboxyphenoxy)decanoylamino]butanoyl]amino]ethoxy]ethoxy]acetyl]amino]ethoxy]ethoxy]acetyl], N^ε36-[2-[2-[2-[[2-[2-[2-[[(4S)-4-carboxy-4-[10-(4-carboxyphenoxy)decanoylamino]butanoyl]amino]ethoxy]ethoxy]acetyl]amino]ethoxy]ethoxy]acetyl]-[Glu^22,His^26,Lys^27,Glu^30,Arg^34,Lys^36]-GLP-1-(7-37)-peptidyl-Glu] (H-HAEGTFTSDVSSYLEEQAAHK([AEEA-AEEA-γGlu-Decanoyl(10-(4-HOOC-PhO))])FIEWLVRGK([AEEA-AEEA-γGlu-Decanoyl(10-(4-HOOC-PhO))])GE-OH; N-terminus and C-terminus assumed) | 10.28 |  | 140 |
